US20040152641A1, “Use of polymethoxylated flavones for treating insulin resistance” (priority 2001, published 2004)
Values after ≈ are worked out from the molar mass of the structure shown.

What was measured:
[1] = target: alpha-glucosidase Type 1 from bakers yeast (Saccharomyces cerevisiae, UniProt P53341); experiment: In vitro inhibition of alpha-glucosidase; assay type: biochemical; settings: 30 min, 37° C., p-nitrophenyl-alpha-D-glucopyranoside
Method: For the assay, alpha-glucosidase Type 1 from bakers yeast was incubated for 30 min, at 37° C., in the presence of substrate (p-nitrophenyl-alpha-D-glucopyranoside) and in the presence vs. absence of citrus flavonoids or coumarins at concentrations ranging from 3 to 200 μg/mL (0.01 to 1.8 mM). The reaction was stopped by addition of 0.2 M Na2CO3 and absorbance was measured at 405 nm. Background absorbance (without enzyme) was subtracted for every flavonoid or coumarins concentration used. The inhibitory activity was expressed as percent control and IC50 values (concentrations of compounds required to inhibit alpha-glucosidase by 50%) were calculated.

[2] = system: human liver cell line HepG2; settings: cited from earlier work
[3] = system: hamsters made insulin resistant by feeding 60% fructose diet; experiment: Hamsters made insulin resistant by 60% fructose diet, tangeretin supplementation, 2 weeks; settings: for HDL cholesterol / Insulin / NEFA / NO2/NO3 / Triacylglycerols / VLDL + LDL cholesterol / Total cholesterol: serum, mean ± SD
Method: Diets were pair-fed to control for 2 weeks. After that time, fasting blood samples were collected by heart puncture for measurement of plasma lipids, glucose, NEFA, insulin and nitrites/nitrates (end products of nitric oxide metabolism). Total cholesterol in whole serum and in HDL fraction as well as total triglycerides and glucose were measured by enzymatic timed-endpoint methods, using the Beckman Coulter reagents and SYNCHRON™ LX System. VLDL+LDL cholesterol concentrations were calculated as a difference between total and HDL cholesterol. NEFA were determined enzymatically by NEFA C kit (Wako Chemicals USA Inc., Richmond, Va.). Serum insulin was measured using Rat Insulin RIA kit from Linco Research Inc. St. Charles, Mo. Serum nitrates/nitrites concentrations were determined using Nitrate/Nitrite Colorimetric Assay kit from Cayman Chemical Co., Ann Arbor, Mich.

HepG2 cells = experiment: Medium apo B in HepG2 cells made insulin-resistant by long-term insulin incubation; assay type: cell-based, human; settings: insulin plus 25 μg/mL tangeretin, 5 days, Elisa
Method: In the cell culture study, 80-90% confluent HepG2 cells were incubated for 5 days with the following media:
1. Minimum essential medium containing 1% bovine serum albumin (MEM+BSA)
2. The same medium containing […] bovine insulin
All media were changed on day 3 to maintain high concentration of insulin (which undergoes partial degradation after long-term incubation). After 5 days, media and cells were collected. Medium concentrations of apo B were measured by Elisa and expressed as μg per mg cell protein as described previously^8.

[4] = system: hamsters with casein-induced hypercholesterolemia; settings: 0.13-1.0% supplementation; cited from earlier work
alpha-glucosidase = settings: cited from earlier work

alpha-glucosidase Type 1 from bakers yeast, sequence (P53341 whole entry): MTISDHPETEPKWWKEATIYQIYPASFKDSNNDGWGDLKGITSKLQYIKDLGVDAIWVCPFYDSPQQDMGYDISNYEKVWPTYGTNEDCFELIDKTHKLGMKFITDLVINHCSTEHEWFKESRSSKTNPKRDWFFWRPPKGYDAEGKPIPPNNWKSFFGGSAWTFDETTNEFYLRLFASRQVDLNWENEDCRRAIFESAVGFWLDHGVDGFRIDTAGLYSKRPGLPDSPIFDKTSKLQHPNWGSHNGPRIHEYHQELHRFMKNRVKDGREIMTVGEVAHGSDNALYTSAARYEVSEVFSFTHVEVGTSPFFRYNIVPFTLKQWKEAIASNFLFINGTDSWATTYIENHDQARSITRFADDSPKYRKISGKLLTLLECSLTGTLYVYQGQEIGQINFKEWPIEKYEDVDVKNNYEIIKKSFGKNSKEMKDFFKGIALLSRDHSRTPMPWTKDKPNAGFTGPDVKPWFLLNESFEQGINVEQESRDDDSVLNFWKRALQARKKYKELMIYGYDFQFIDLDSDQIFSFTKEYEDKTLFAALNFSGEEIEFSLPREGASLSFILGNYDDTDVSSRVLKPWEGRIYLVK

Work on `COc1ccc(-c2oc3c(OC)c(OC)c(OC)c(OC)c3c(=O)c2OC)cc1OC` [Heptamethoxyflavone] yielded an IC50 [1] of 500 µM and an IC50 alpha-glucosidase [1] of 201.7 µg/mL (≈ 466 µM).
For `COc1ccc(-c2cc(=O)c3c(OC)c(OC)c(OC)c(OC)c3o2)cc1` [Tangeretin, 5,6,7,8,4′-pentamethoxyflavone], the “production of apolipoprotein B (apo B)” value [2] is given as “substantially reduced”, the “growth rate and food consumption between the groups” value ([3]; 0.25-1.0% tangeretin, pair-fed, 2 weeks) is given as “no significant difference” and the “% change HDL cholesterol” value ([3]; +0.25% Tan vs fructose group) is given as 0%. The “% change Insulin” value ([3]; +0.25% Tan vs fructose group) was −13%, the “% change NEFA” value ([3]; +0.25% Tan vs fructose group) was −23% and the “% change Total cholesterol” value ([3]; +0.25% Tan vs fructose group) was −5%. For the same compound, the “% change Triacylglycerols” value ([3]; +0.25% Tan vs fructose group) was −24%, the “% change HDL cholesterol” value ([3]; +0.5% Tan vs fructose group) was −17% and the “% change Insulin” value ([3]; +0.5% Tan vs fructose group) was −13%. The “% change NEFA” value ([3]; +0.5% Tan vs fructose group) was −22%, the “% change Total cholesterol” value ([3]; +0.5% Tan vs fructose group) was −22% and the “% change Triacylglycerols” value ([3]; +0.5% Tan vs fructose group) was −27%. The “% change HDL cholesterol” value ([3]; +1.0% Tan vs fructose group) was −27%, the “% change Insulin” value ([3]; +1.0% Tan vs fructose group) was −20% and the “% change NEFA” value ([3]; +1.0% Tan vs fructose group) was −18%. The “% change NO2/NO3” value ([3]; +1.0% Tan vs fructose group) was “+99%”, the “% change Total cholesterol” value ([3]; +1.0% Tan vs fructose group) was −20% and the “% change Triacylglycerols” value ([3]; +1.0% Tan vs fructose group) was −32%. It also gave an HDL cholesterol ([3]; fructose +0.25% Tan) of 2.55 ± 0.72 mmol/L, an Insulin ([3]; fructose +0.25% Tan) of 735 ± 315 pmol/L and an NEFA ([3]; fructose +0.25% Tan) of 1.48 ± 0.36 mEq/L. For the same compound, the NO2/NO3 ([3]; fructose +0.25% Tan) was 55.2 ± 18.8 µmol/L, the Triacylglycerols ([3]; fructose +0.25% Tan) was 1.51 ± 0.56 mmol/L and the “VLDL + LDL cholesterol” value ([3]; fructose +0.25% Tan) was 0.62 ± 0.3 mmol/L. For the same compound, the HDL cholesterol ([3]; fructose +0.5% Tan) was 1.93 ± 0.48 mmol/L, the Insulin ([3]; fructose +0.5% Tan) was 729 ± 239 pmol/L and the NEFA ([3]; fructose +0.5% Tan) was 1.50 ± 0.33 mEq/L. It also gave an NO2/NO3 ([3]; fructose +0.5% Tan) of 52.0 ± 18.5 µmol/L, a Total cholesterol ([3]; fructose +0.5% Tan) of 2.61 ± 0.43 mmol/L and a Triacylglycerols ([3]; fructose +0.5% Tan) of 1.45 ± 0.52 mmol/L. For the same compound, the “VLDL + LDL cholesterol” value ([3]; fructose +0.5% Tan) was 0.68 ± 0.28 mmol/L, the HDL cholesterol ([3]; fructose +1.0% Tan) was 1.88 ± 0.26 mmol/L and the Insulin ([3]; fructose +1.0% Tan) was 675 ± 296 pmol/L. For the same compound, the NEFA ([3]; fructose +1.0% Tan) was 1.58 ± 0.32 mEq/L, the NO2/NO3 ([3]; fructose +1.0% Tan) was 106.3 ± 27.9 µmol/L and the Total cholesterol ([3]; fructose +1.0% Tan) was 2.69 ± 0.23 mmol/L. For the same compound, the Triacylglycerols ([3]; fructose +1.0% Tan) was 1.35 ± 0.57 mmol/L, the “VLDL + LDL cholesterol” value ([3]; fructose +1.0% Tan) was 0.81 ± 0.22 mmol/L and the Serum nitrate/nitrite concentration ([3]; fructose with 1% tangeretin) was “doubled”. For the same compound, the Serum glucose ([3]; supplementation with tangeretin, fructose diet) was “not altered”, the “medium apo B reduced, compared to insulin alone” value (HepG2 cells) was 69% and the “serum content of triacylglycerols and cholesterol” value [4] was “significantly reduced”.
In the case of `O=c1cc(-c2ccc(O)cc2)oc2cc(O)cc(O)c12` [apigenin], the “inhibition of alpha-glucosidase, previous studies” value (shortened to “inhibition of alpha-glucosidase”) (alpha-glucosidase) is listed as “inhibition”.
For `COc1ccc([C@@H]2CC(=O)c3c(O)cc(O[C@@H]4O[C@H](CO[C@@H]5O[C@@H](C)[C@H](O)[C@@H](O)[C@H]5O)[C@@H](O)[C@H](O)[C@H]4O)cc3O2)cc1O` [hesperidin], the “inhibition of alpha-glucosidase” value (alpha-glucosidase) is listed as “lack of alpha-glucosidase inhibition”.
In the case of `O=c1cc(-c2ccc(O)c(O)c2)oc2cc(O)cc(O)c12` [luteolin], the “inhibition of alpha-glucosidase” value (alpha-glucosidase) is given as “inhibition”.
